Results as given in patent publication US10004701B2, “Methods and compositions for treating infection” (UNIVERSITY OF ROCHESTER, priority 2012, dated 2018).
Structures can show the parent of a compound that is named as a salt. Where two headings read alike, the source gives them in different places.

Assays:
Assay in all cases: AK assay 384-well format, Prestwick library screening
[1] = system: E. faecium; assay type: cell-based, Enterococcus faecium; details: Enterococcus faecium, 3 h
[2] = system: S. aureus strain USA300-0114; assay type: cell-based, Staphylococcus aureus; details: Staphylococcus aureus, USA300, 3 h
[3] = system: K. pneumoniae; assay type: cell-based, Klebsiella pneumoniae; details: Klebsiella pneumoniae, 3 h
[4] = system: A. baumannii strain 98-37-09; assay type: cell-based, Acinetobacter baumannii; details: Acinetobacter baumannii, 983709, 3 h
[5] = system: P. aeruginosa; assay type: cell-based, Pseudomonas aeruginosa; details: Pseudomonas aeruginosa, 3 h
[6] = system: E. cloacae; assay type: cell-based, Enterobacter cloacae; details: Enterobacter cloacae, 3 h
[7] = system: E. coli; assay type: cell-based, Escherichia coli; details: Escherichia coli, 3 h
[8] = 50 μM final drug concentration, […], read-out: AK-based Prestwick Library Screening Results, E. faecium (fold increase in extracellular AK activity)
[9] = 50 μM final drug concentration, […], read-out: AK-based Prestwick Library Screening Results, S. aureus (fold increase in extracellular AK activity)
[10] = 50 μM final drug concentration, […], read-out: AK-based Prestwick Library Screening Results, K. pneumoniae (fold increase in extracellular AK activity)
[11] = 50 μM final drug concentration, […], read-out: AK-based Prestwick Library Screening Results, A. baumannii (fold increase in extracellular AK activity)
[12] = 50 μM final drug concentration, […], read-out: AK-based Prestwick Library Screening Results, P. aeruginosa (fold increase in extracellular AK activity)
[13] = 50 μM final drug concentration, […], read-out: AK-based Prestwick Library Screening Results, E. cloacae (fold increase in extracellular AK activity)
[14] = 50 μM final drug concentration, […], read-out: AK-based Prestwick Library Screening Results, E. coli (fold increase in extracellular AK activity)
[15] = 50 μM final drug concentration, cutoff for positive-scoring molecules 3-fold increase, read-out: AK-based Prestwick Library Screening Results, E. faecium (fold increase in extracellular AK activity)
[16] = 50 μM final drug concentration, cutoff for positive-scoring molecules 3-fold increase, read-out: AK-based Prestwick Library Screening Results, S. aureus (fold increase in extracellular AK activity)
[17] = 50 μM final drug concentration, cutoff for positive-scoring molecules 3-fold increase, read-out: AK-based Prestwick Library Screening Results, K. pneumoniae (fold increase in extracellular AK activity)
[18] = 50 μM final drug concentration, cutoff for positive-scoring molecules 3-fold increase, read-out: AK-based Prestwick Library Screening Results, A. baumannii (fold increase in extracellular AK activity)
[19] = 50 μM final drug concentration, cutoff for positive-scoring molecules 3-fold increase, read-out: AK-based Prestwick Library Screening Results, P. aeruginosa (fold increase in extracellular AK activity)
[20] = 50 μM final drug concentration, cutoff for positive-scoring molecules 3-fold increase, read-out: AK-based Prestwick Library Screening Results, E. cloacae (fold increase in extracellular AK activity)
[21] = 50 μM final drug concentration, cutoff for positive-scoring molecules 3-fold increase, read-out: AK-based Prestwick Library Screening Results, E. coli (fold increase in extracellular AK activity)
[22] = 50 μM final drug concentration, planktonic, […], read-out: AK-based Prestwick Library Screening Results, E. faecium (fold increase in extracellular AK activity)
[23] = 50 μM final drug concentration, planktonic, […], read-out: AK-based Prestwick Library Screening Results, S. aureus (fold increase in extracellular AK activity)
[24] = 50 μM final drug concentration, planktonic, […], read-out: AK-based Prestwick Library Screening Results, K. pneumoniae (fold increase in extracellular AK activity)
[25] = 50 μM final drug concentration, planktonic, […], read-out: AK-based Prestwick Library Screening Results, A. baumannii (fold increase in extracellular AK activity)
[26] = 50 μM final drug concentration, planktonic, […], read-out: AK-based Prestwick Library Screening Results, P. aeruginosa (fold increase in extracellular AK activity)
[27] = 50 μM final drug concentration, planktonic, […], read-out: AK-based Prestwick Library Screening Results, E. cloacae (fold increase in extracellular AK activity)
[28] = 50 μM final drug concentration, planktonic, […], read-out: AK-based Prestwick Library Screening Results, E. coli (fold increase in extracellular AK activity)

CN1[C@@H]2C[C@@H](OC(=O)[C@H](CO)c3ccccc3)C[C@H]1[C@@H]1O[C@@H]12 [Scopolamine hydrochloride]
fold induction at 50 µM [1, 8]: 1 | fold induction at 50 µM [2, 9]: 1.2 | fold induction at 50 µM [3, 10]: 1.1 | fold induction at 50 µM [4, 11]: 1.2 | fold induction at 50 µM [5, 12]: 1.1 | fold induction at 50 µM [6, 13]: 1.5 | fold induction at 50 µM [7, 14]: 1.2

COc1cc2ccc(=O)oc2cc1O [Scopoletin]
fold induction at 50 µM [1, 15]: 0.9 | fold induction at 50 µM [2, 16]: 0.3 | fold induction at 50 µM [3, 17]: 0.4 | fold induction at 50 µM [4, 18]: 0.4 | fold induction at 50 µM [5, 19]: 0.4 | fold induction at 50 µM [6, 20]: 0.3 | fold induction at 50 µM [7, 21]: 0.4

COc1cc2c(cc1O)[C@@H]1Cc3ccc(OC)c(O)c3CN1CC2 [Scoulerine]
fold induction at 50 µM [1, 22]: 1 | fold induction at 50 µM [2, 23]: 1 | fold induction at 50 µM [3, 24]: 1 | fold induction at 50 µM [4, 25]: 1.3 | fold induction at 50 µM [5, 26]: 1.1 | fold induction at 50 µM [6, 27]: 1.6 | fold induction at 50 µM [7, 28]: 1.2

O=C1C=C2C=C[C@@H]3C[C@@]2(O1)[C@H]1CCCCN31 [Securinine]
fold induction at 50 µM [1, 8]: 1 | fold induction at 50 µM [2, 9]: 1.1 | fold induction at 50 µM [3, 10]: 0.8 | fold induction at 50 µM [4, 11]: 1.1 | fold induction at 50 µM [5, 12]: 1.2 | fold induction at 50 µM [6, 13]: 1.6 | fold induction at 50 µM [7, 14]: 1.3

C#CCN(C)[C@H](C)Cc1ccccc1 [Selegiline hydrochloride]
fold induction at 50 µM [1, 22]: 1 | fold induction at 50 µM [2, 23]: 1.1 | fold induction at 50 µM [3, 24]: 1.2 | fold induction at 50 µM [4, 25]: 1.1 | fold induction at 50 µM [5, 26]: 1.2 | fold induction at 50 µM [6, 27]: 1.6 | fold induction at 50 µM [7, 28]: 1.3

C=C1C/C(=C/C)C(=O)O[C@@H]2CCN3CC=C(COC(=O)[C@]1(C)O)[C@H]23 [Seneciphylline]
fold induction at 50 µM ([1]; planktonic E. faecium, 50 μM final drug concentration, […], read-out: AK-based Prestwick Library Screening Results, E. faecium (increase in extracellular AK activity)): 0.9 | fold induction at 50 µM ([2]; planktonic S. aureus, 50 μM final drug concentration, […], read-out: AK-based Prestwick Library Screening Results, S. aureus (increase in extracellular AK activity)): 0.8 | fold induction at 50 µM ([3]; planktonic K. pneumoniae, 50 μM final drug concentration, […], read-out: AK-based Prestwick Library Screening Results, K. pneumoniae (increase in extracellular AK activity)): 0.7 | fold induction at 50 µM ([4]; planktonic A. baumannii, 50 μM final drug concentration, […], read-out: AK-based Prestwick Library Screening Results, A. baumannii (increase in extracellular AK activity)): 0.8 | fold induction at 50 µM ([5]; planktonic P. aeruginosa, 50 μM final drug concentration, […], read-out: AK-based Prestwick Library Screening Results, P. aeruginosa (increase in extracellular AK activity)): 0.8 | fold induction at 50 µM ([6]; planktonic E. cloacae, 50 μM final drug concentration, […], read-out: AK-based Prestwick Library Screening Results, E. cloacae (increase in extracellular AK activity)): 1.2 | fold induction at 50 µM ([7]; planktonic E. coli, 50 μM final drug concentration, […], read-out: AK-based Prestwick Library Screening Results, E. coli (increase in extracellular AK activity)): 0.9

NCCc1c[nH]c2ccc(O)cc12 [Serotonin hydrochloride]
fold induction at 50 µM ([1]; planktonic E. faecium, 50 μM final drug concentration, 384-well, […], read-out: AK-based Prestwick Library Screening Results: E. faecium (increase in extracellular AK activity)): 0.9 | fold induction at 50 µM ([2]; planktonic S. aureus, 50 μM final drug concentration, 384-well, […], read-out: AK-based Prestwick Library Screening Results: S. aureus (increase in extracellular AK activity)): 0.6 | fold induction at 50 µM ([3]; planktonic K. pneumoniae, 50 μM final drug concentration, 384-well, […], read-out: AK-based Prestwick Library Screening Results: K. pneumoniae (increase in extracellular AK activity)): 0.6 | fold induction at 50 µM ([4]; planktonic A. baumannii, 50 μM final drug concentration, 384-well, […], read-out: AK-based Prestwick Library Screening Results: A. baumannii (increase in extracellular AK activity)): 0.6 | fold induction at 50 µM ([5]; planktonic P. aeruginosa, 50 μM final drug concentration, 384-well, […], read-out: AK-based Prestwick Library Screening Results: P. aeruginosa (increase in extracellular AK activity)): 0.6 | fold induction at 50 µM ([6]; planktonic E. cloacae, 50 μM final drug concentration, 384-well, […], read-out: AK-based Prestwick Library Screening Results: E. cloacae (increase in extracellular AK activity)): 0.6 | fold induction at 50 µM ([7]; planktonic E. coli, 50 μM final drug concentration, 384-well, cutoff for positive-scoring molecules 3-fold increase, read-out: AK-based Prestwick Library Screening Results: E. coli (increase in extracellular AK activity)): 0.8

Clc1ccc(C(Cn2ccnc2)OCc2csc3c(Cl)cccc23)c(Cl)c1 (stereo not shown) [Sertaconazole nitrate]
fold induction at 50 µM [1, 15]: 2.8 | fold induction at 50 µM [2, 16]: 0.7 | fold induction at 50 µM [3, 17]: 0.7 | fold induction at 50 µM [4, 18]: 2.4 | fold induction at 50 µM [5, 19]: 0.5 | fold induction at 50 µM [6, 20]: 0.4 | fold induction at 50 µM [7, 21]: 0.7

CN[C@H]1CC[C@@H](c2ccc(Cl)c(Cl)c2)c2ccccc21 [Sertraline]
fold induction at 50 µM ([1]; planktonic E. faecium, 50 μM final drug concentration, positive cutoff 3-fold increase, read-out: AK-based Prestwick library screening result, E. faecium (fold increase in extracellular AK activity)): 1.1 | fold induction at 50 µM ([2]; planktonic S. aureus, 50 μM final drug concentration, positive cutoff 3-fold increase, read-out: AK-based Prestwick library screening result, S. aureus (fold increase in extracellular AK activity)): 1.6 | fold induction at 50 µM ([3]; planktonic K. pneumoniae, 50 μM final drug concentration, positive cutoff 3-fold increase, read-out: AK-based Prestwick library screening result, K. pneumoniae (fold increase in extracellular AK activity)): 1.4 | fold induction at 50 µM ([4]; planktonic A. baumannii, 50 μM final drug concentration, positive cutoff 3-fold increase, read-out: AK-based Prestwick library screening result, A. baumannii (fold increase in extracellular AK activity)): 2.9 | fold induction at 50 µM ([5]; planktonic P. aeruginosa, 50 μM final drug concentration, positive cutoff 3-fold increase, read-out: AK-based Prestwick library screening result, P. aeruginosa (fold increase in extracellular AK activity)): 1.2 | fold induction at 50 µM ([6]; planktonic E. cloacae, 50 μM final drug concentration, positive cutoff 3-fold increase, read-out: AK-based Prestwick library screening result, E. cloacae (fold increase in extracellular AK activity)): 1.5 | fold induction at 50 µM ([7]; planktonic E. coli, 50 μM final drug concentration, positive cutoff 3-fold increase, read-out: AK-based Prestwick library screening result, E. coli (fold increase in extracellular AK activity)): 1.6

CCC(C)(C)C(=O)O[C@H]1C[C@@H](C)C=C2C=C[C@H](C)[C@H](CC[C@@H]3C[C@@H](O)CC(=O)O3)[C@H]21 [Simvastatin]
fold induction at 50 µM ([1]; read-out: AK-based Prestwick Library Screening Results, E. faecium (fold increase in extracellular AK activity)): 1 | fold induction at 50 µM ([2]; read-out: AK-based Prestwick Library Screening Results, S. aureus (fold increase in extracellular AK activity)): 0.4 | fold induction at 50 µM ([3]; read-out: AK-based Prestwick Library Screening Results, K. pneumoniae (fold increase in extracellular AK activity)): 1.2 | fold induction at 50 µM ([4]; read-out: AK-based Prestwick Library Screening Results, A. baumannii (fold increase in extracellular AK activity)): 2.5 | fold induction at 50 µM ([5]; read-out: AK-based Prestwick Library Screening Results, P. aeruginosa (fold increase in extracellular AK activity)): 1.1 | fold induction at 50 µM ([6]; read-out: AK-based Prestwick Library Screening Results, E. cloacae (fold increase in extracellular AK activity)): 1.5 | fold induction at 50 µM ([7]; read-out: AK-based Prestwick Library Screening Results, E. coli (fold increase in extracellular AK activity)): 1.6
